Data published in patent publication US10265327B2, “V1A antagonists to treat phase shift sleep disorders” (Hoffmann-La Roche Inc., priority 2013, dated 2019).

Assays:
[1] = biological target: T1, mouse V1a receptor (mV1a) (Mus musculus, UniProt Q62463); test: Radioligand binding assay (3H-AVP, filtration), mouse V1a; conditions: Ki ± SEM (n); 1 nM 3H-AVP
T1 construct: expressed in transfected cells; host or cells: HEK cells, transient transfection; membrane preparation
Description: (§1) The test compound was initially dissolved in DMSO at a concentration of 10 mM. Subsequent dilutions were made in assay buffer with a maximum final concentration of 0.2% DMSO.
(§2) Recombinant vasopressin V1a (human: hV1a; mouse: mV1a), V1b (human: hV1b) were independently expressed in human embryonic kidney (HEK) cells using transient transfection. The cell membranes expressing the various receptors were prepared by homogenizing (using Polytron homogenizer) the cell culture pellet in lysis buffer (50 mM HEPES, 1 mM EDTA, 10 mM MgCl2, pH 7.4 with protease inhibitors), then centrifuging the resulting suspension at 500 g for 20 min at 4° C. The supernatant was subsequently re-centrifuged at 43,000 g for 1 hour at 4° C. […] The concentration of protein was determined, and the membranes were aliquoted and stored at −80° C. until further use.
(§3) All radioligand binding assays were carried out in 96-well plates in the presence of 1 nM ^3H-AVP (vasopressin) radioligand, and 10 concentrations of test compound (ranging from 27 μM-1 nM or 2.7 μM-0.1 nM for hV1a binding). […] Filtration assays were terminated by rapid filtration under vacuum through GF/C filters, presoaked for 5 min with buffer B containing Tris 50 mM, MgCl2 5 mM, 0.1% BSA (pH 7.4), followed by 5×0.4 ml washes of ice-cold buffer B. For both SPA and filtration plates, bound ligand was determined using a Packard Topcount scintillation counter. […]

[2] = biological target: T2, human V1b receptor (hV1b) (Homo sapiens, UniProt P47901); test: Radioligand binding assay (3H-AVP, SPA), human V1b; conditions: (n); 1 nM 3H-AVP; read-out: pKi V1b Human (converted)
T2 construct: expressed in transfected cells; host or cells: HEK cells, transient transfection; membrane preparation
T2 sequence (P47901 1-424): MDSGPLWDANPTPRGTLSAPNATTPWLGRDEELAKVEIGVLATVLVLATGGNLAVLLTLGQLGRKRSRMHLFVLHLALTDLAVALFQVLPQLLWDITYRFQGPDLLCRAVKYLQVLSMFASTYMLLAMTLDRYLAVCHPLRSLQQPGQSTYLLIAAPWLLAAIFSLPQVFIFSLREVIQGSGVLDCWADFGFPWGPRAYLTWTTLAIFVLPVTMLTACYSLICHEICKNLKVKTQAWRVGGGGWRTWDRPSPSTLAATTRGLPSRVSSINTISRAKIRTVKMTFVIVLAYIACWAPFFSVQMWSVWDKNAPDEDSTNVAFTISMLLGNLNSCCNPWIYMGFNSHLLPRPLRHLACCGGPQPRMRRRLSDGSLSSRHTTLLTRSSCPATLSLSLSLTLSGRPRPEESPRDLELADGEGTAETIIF
Description: as §1, §2, §3

T1 sequence (Q62463 whole entry): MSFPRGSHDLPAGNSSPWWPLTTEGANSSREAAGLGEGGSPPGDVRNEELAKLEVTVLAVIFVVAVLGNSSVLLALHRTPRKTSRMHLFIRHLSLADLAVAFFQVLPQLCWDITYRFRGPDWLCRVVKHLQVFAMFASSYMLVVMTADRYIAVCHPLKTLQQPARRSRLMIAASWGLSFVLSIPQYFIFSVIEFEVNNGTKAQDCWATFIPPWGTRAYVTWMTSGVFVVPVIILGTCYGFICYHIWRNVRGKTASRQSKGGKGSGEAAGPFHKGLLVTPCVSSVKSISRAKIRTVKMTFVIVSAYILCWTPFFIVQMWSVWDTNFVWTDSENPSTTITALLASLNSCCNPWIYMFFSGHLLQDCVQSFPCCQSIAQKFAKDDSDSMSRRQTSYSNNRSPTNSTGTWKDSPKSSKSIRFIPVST

## CN1Cc2cc(Cl)ccc2-n2c(nnc2[C@H]2CC[C@H](Oc3ccccn3)CC2)C1 [Example 1, trans-8-chloro-5-methyl-1-(4-pyridin-2-yloxycyclohexyl)-4,6-dihydro-[1,2,4]triazolo[4,3-a][1,4]benzodiazepine]
[1]
  Ki: 77 ± 2 nM
[2]
  Ki: > 31600 nM
